Literature values as cited in patent US20150141404A1, “NON-IONIC VESICLE FORMULATIONS OF CALCIUM CHANNEL BLOCKERS” (CONTRACT PHARMACEUTICALS LIMITED, priority 2012, published 2015).

System: anal fissure
Conditions: topical

In the case of `COc1ccc([C@@H]2Sc3ccccc3N(CCN(C)C)C(=O)[C@@H]2OC(C)=O)cc1` [diltiazem, Diltiazem], the healing rates is listed as “improved” and the “maximum resting pressure (MRP)” value is listed as “reduces”.
